Where no end group is shown, it is not given here.
How the values were obtained:
[1] = tested on: K562 Target Cells; assay: Natural killer assay (^51Cr release), human PBLs against K562; type: cell-based; settings: PT 0.01 μg/ml
Procedure: Murine spleen cell and human peripheral blood lymphocytes (PBLs) were obtained as described in the procedure for the Mitogen Assay.
Drugs and control substances were added, using sterile techniques, to the wells of a 24-well plate, using RPMI-10 as the culture medium. Spleen cells or human lymphocytes were added last to the wells at a concentration of 4×10^6 cells per 2 ml total volume in the well. Splenocyte incubation was usually three days (65-70 hours) while human lymphocyte stimulation may be extended to four to five days. The cells were incubated at 37° C. in a humidified 5% CO2 incubator.
On the day of harvest, 10^7 target cells were labeled with 150 μCi of ^51Cr (sodium chromate). Target cells used were YAC-I (murine Lymphoma) or K562 (human chronic myelogenous leukemia). […]
The 96-well plate was centrifuged at 150×g for four minutes to gently bring the effector and target cells in contact. […] The percent release was calculated using the following formula: […]
Addition of PT stimulates both murine splenocytes and human PBLs to kill tumor cells through lysis. […] After a 30-minute incubation, the radioactivity in the supernatant fluid was counted as a measure of lysis of the target cells, which reflects NK activity. […]

[2] = tested on: non-adherent human PBLs; assay: Mitogen assay (^3H-thymidine uptake), human PBLs; type: cell-based; settings: PT 0.01 μg/ml
Source text: Murine spleen cells or human peripheral blood lymphocytes (PBLS) were obtained aseptically as described herein for use in the mitogen assay. When murine splenocytes were used, they were first treated with red cell lysing buffer (0.17 M Tris, 0.144 NH4C1, pH 7.2), washed in RPMI-10 (standard RPMI growth medium, Sigma Chemical Co., St. Louis, Mo., supplemented with 10% fetal bovine serum) and viable cells counted using Trypan Blue exclusion. Human PBLs were isolated from blood using HISTOPAQUE™-1077, a solution of FICOLL™ and sodium diatrizoate (Sigma Chemical Co., St. Louis, Mo.), and subsequent washings with RPMI-5 (RPMI supplemented with 5% fetal bovine serum) to remove platelets. Isolated lymphocytes were resuspended in RPMI-10 and a viable cell yield determined by Trypan Blue exclusion.
Drugs and known mitogenic controls were added in triplicate to a 96-well flat bottom microplate aseptically. The culture medium was RPMI-10. Splenocytes or human-lymphocytes were added at a concentration of 3-4×10^5 cells/well, to a final volume of 200 μl/well. The assay plate was incubated at 37° C. in a 5% CO2 humidified incubator. At 48-50 hours, ^3H-thymidine was added (1 μCi/well), and the plate was harvested approximately 16-18 hours later.
Mitogen assay microplates were harvested using an Inotech plate harvester (Inotech Biosystems International, Inc., Rockville, Md.). Counts per minute (cpm) per well were measured using the Berthold-Inotech Trace 96-plate reader (Inotech AT, Wohlen, Switzerland) and/or a scintillation counter (Packard Tri-carb 2100TR, Packard Instrument Co., Meriden, Conn.). Mitogenic activity was directly determined by comparing cpm levels to controls.
To test whether PT stimulates mitogen activity, splenocytes were incubated for two days with IL-2 (50 units/ml) or KLH (20 μg/ml) in conjunction with PT in the concentrations shown. Figures represent the radioactivity counts of tritiated thymidine taken up during a subsequent 20-hour incubation period of cells incubated with tritiated thymidine in RPMI.

## Pyrularia thionin (KSCCRNTWARNCYNVCRLPGTISREICAKKCDCKIISGTTCPSDYPK; ends and bridges not checked; also: labeled with 125I) [PT]
[1]
  % Cytotoxicity: 8.4 ± 0.1%
[2]; RPMI
  CPM of tritiated thymidine incorporated: 724 ± 212 CPM
[2]; RPMI + IL-2 50 units/ml
  CPM of tritiated thymidine incorporated: 2,584 ± 527 CPM
